Key:
Glutamate NMDA receptor = experiment: Compound was tested for its ability to displace [3H]- MK-801 binding to NMDA receptor in rat forebrain membranes.; format: cell membranes
Rattus norvegicus [1] = species: Rattus norvegicus; experiment: Compound was tested for the protection of neurons against NMDA toxicity at concentration of 10 uM; format: functional
[2] = target: Glutamate NMDA receptor (Rattus norvegicus) (UniProt P35439+Q00959+Q00960+Q00961+Q62645+Q8VHN2+Q9R1M7); experiment: Compound was tested for its ability to inhibit [3H]- MK-801 binding to NMDA receptor in rat forebrain membranes at concentration of 100 uM; format: cell membranes; details: Membrane
Rattus norvegicus [3] = species: Rattus norvegicus; experiment: Compound was tested for neuronal cell toxicity in cortical neuron cell cultures extracted from fetal rat brains at concentration of 10 uM; format: functional, Brain
Rattus norvegicus [4] = species: Rattus norvegicus; experiment: Compound was tested for neuronal cell toxicity in cortical neuron cell cultures extracted from fetal rat brains at concentration of 20 uM; format: functional, Brain

Row | SMILES | IC50 (Glutamate NMDA receptor) [µM] | Protection (Rattus norvegicus [1]) [%] | inhibition [2] [%] | Morbidity (Rattus norvegicus [3]) [%] | Morbidity (Rattus norvegicus [4]) [%]
1 | CCCCCCC(C)(C)c1cc(O)c2c(c1)OC(C)(C)C1CC=C(CO)C[C@H]21 (some centres undefined) | 10 | 63 | 90 | 25 | 
2 | CC(C)(C)c1cc(O)c2c(c1)OC(C)(C)C1CC=C(CO)C[C@H]21 (some centres undefined) | 30 | 24 | 83 | 15 | 36
3 | CCCC(C)(C)c1cc(O)c2c(c1)OC(C)(C)C1CC=C(CO)C[C@H]21 (some centres undefined) | 30 | 36 | 80 | 0 | 0
